Laboratory results taken from US20240148707A1, “MODULATION OF DRUG-DRUG INTERACTIONS OF VADADUSTAT” (Akebia Therapeutics, Inc., priority 2021, published 2024).
Where two headings read alike, the source gives them in different places.

Assays:
[1] = [14C]-labeled Compound 1 metabolism and excretion study in healthy adult males; type: in vivo, human
Text: The urinary excretion rate of this drug and acyl glucuronide is less than 1% of the total radioactivity.

[2] = Phase I drug-drug interaction study with probenecid (Part 1, Arm 2); type: in vivo, human; conditions: for AUC(0-inf) / AUC(0-t) / Cmax: both sexes, human, plasma, fasted
Method: A phase I, open-label, 2-part study was conducted in healthy male and female subjects to evaluate the potential for interaction of cyclosporine (Part 1, Arm 1), probenecid (Part 1, Arm 2), and rifampin (Part 2) with vadadustat.
On the morning of Day 1, subjects received a single oral dose of vadadustat (300 mg) as 2×150 mg tablets after at least a 10-hour overnight fast and remained fasted for at least 4 hours post-dose. Following a 2-day washout (Days 1 to 2), subjects received 1 oral probenecid 500 mg tablet Q12 h for 4 days (Days 3 to 6). On days that probenecid was administered alone (Days 3, 4, and 6), probenecid was administered in a fasted state 1 hour prior to a standard breakfast and 1 hour prior to an evening meal or snack. On Day 5, probenecid was co-administered with a single dose of vadadustat (300 mg as 2×150 mg tablets) following at least a 10-hour fast. Subjects remained fasted for at least 4 hours after dosing.
On days vadadustat was administered (Day 1 and Day 5), blood samples for PK analysis were collected up to 48 hours postdose. In addition, on vadadustat dosing days, pooled urine samples were collected up to 24 hours post-dose. Subjects were discharged from the CRU on the morning of Day 7, after the final 48-hour post-dose PK sample had been collected. A follow-up phone call was conducted 30 days±2 days after the final dose.

share of the total radioactivity (AUC0-∞) in plasma ([1]; healthy adult male (6), single oral 650 mg [14C]-labeled Compound 1): 75%
total radioactivity administered recovered in urine ([1]; single dose 650 mg [14C]-labeled, by 72 hours after administration): 58.9%
AUC(0-inf) ([2]; oral, vadadustat 300 mg single dose + probenecid 500 mg Q12h (multiple doses), read-out: AUCinf, geometric LSM, Treatment V + P): 427 µg·h/mL
AUC(0-t) ([2]; oral, vadadustat 300 mg single dose + probenecid 500 mg Q12h (multiple doses), read-out: AUClast, geometric LSM, Treatment V + P): 417 µg·h/mL
Cmax ([2]; oral, vadadustat 300 mg single dose + probenecid 500 mg Q12h (multiple doses), read-out: Cmax, geometric LSM, Treatment V + P): 48800 ng/mL
AUC(0-inf) ([2]; vadadustat 300 mg alone, single oral dose, read-out: AUCinf, geometric LSM, Treatment V): 234 µg·h/mL
AUC(0-t) ([2]; vadadustat 300 mg alone, single oral dose, read-out: AUClast, geometric LSM, Treatment V): 233 µg·h/mL
Cmax ([2]; vadadustat 300 mg alone, single oral dose, read-out: Cmax, geometric LSM, Treatment V): 47500 ng/mL
change of Cmax values ([2]; in combination with probenecid): relatively unchanged
urinary excretion ([2]; in combination with probenecid): decreased
Compound: O=C(O)CNC(=O)c1ncc(-c2cccc(Cl)c2)cc1O [Compound 1, {[5-(3-chlorophenyl)-3-hydroxypyridine-2-carbonyl]amino}acetic acid]
tolerability ([2]; during treatment with probenecid, healthy subjects): tolerated
